# Assay results: patent US10479780B2, “Aminopyrazole derivatives” (Chugai Seiyaku Kabushiki Kaisha, priority 2015, dated 2019)
# Like-named read-outs stand apart in the source and are kept apart here.
# Columns and labels:
# Type in all cases: biochemical
# human Lck enzyme = molecular target: T1, human Lck enzyme (Homo sapiens, UniProt P06239); assay: Lck enzyme inhibitory activity (time-resolved fluorometry, biotinylated peptide phosphorylation); conditions: read-out: LCK_IC50
# T1 construct: purchased Carna Biosciences, Inc. 08-170
# Method in brief: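 Readout pairs a europium cryptate-labelled anti-phosphotyrosine antibody with XL665-streptavidin, measured by time-resolved fluorescence. IC50 derived from percent inhibition against untreated controls.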
# human Src enzyme = molecular target: T2, human Src enzyme (Homo sapiens, UniProt P12931); assay: Src enzyme inhibitory activity (time-resolved fluorometry, biotinylated peptide phosphorylation); conditions: read-out: SRC_IC50
# T2 construct: purchased Carna Biosciences, Inc. 08-173
# Method in brief: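 Compounds were tested for blocking tyrosine phosphorylation of a biotinylated peptide substrate by recombinant human Src. Phosphorylated product was quantified by time-resolved fluorometry using europium cryptate and XL665 conjugates, and IC50 was calculated against the compound-free control.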
# human Yes1 enzyme = molecular target: T3, human Yes1 enzyme (Homo sapiens, UniProt P07947); assay: Yes1 enzyme inhibitory activity (time-resolved fluorometry, biotinylated peptide phosphorylation); conditions: read-out: YES_IC50
# T3 construct: made in house
# Method in brief: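 Inhibition was expressed against a compound-free control to give IC50, using TR-FRET read-out (Eu-cryptate anti-pTyr antibody, streptavidin-XL665).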
# [1] = biotinylated peptide phosphorylation
# T1 sequence (P06239 whole entry): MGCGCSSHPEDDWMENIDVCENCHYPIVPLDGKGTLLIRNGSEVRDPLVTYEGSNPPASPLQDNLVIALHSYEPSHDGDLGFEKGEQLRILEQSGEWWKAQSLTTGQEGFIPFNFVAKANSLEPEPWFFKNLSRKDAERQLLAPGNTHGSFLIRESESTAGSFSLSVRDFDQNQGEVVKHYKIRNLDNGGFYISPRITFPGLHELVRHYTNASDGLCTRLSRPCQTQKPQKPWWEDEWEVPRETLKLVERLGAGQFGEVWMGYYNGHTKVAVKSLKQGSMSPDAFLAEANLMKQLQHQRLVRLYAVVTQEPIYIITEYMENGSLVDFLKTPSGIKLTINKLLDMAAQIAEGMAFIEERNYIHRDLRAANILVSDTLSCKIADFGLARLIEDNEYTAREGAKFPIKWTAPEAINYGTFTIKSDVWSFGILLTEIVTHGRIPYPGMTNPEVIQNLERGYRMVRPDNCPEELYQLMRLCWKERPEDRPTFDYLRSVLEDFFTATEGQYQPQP
# T2 sequence (P12931 whole entry): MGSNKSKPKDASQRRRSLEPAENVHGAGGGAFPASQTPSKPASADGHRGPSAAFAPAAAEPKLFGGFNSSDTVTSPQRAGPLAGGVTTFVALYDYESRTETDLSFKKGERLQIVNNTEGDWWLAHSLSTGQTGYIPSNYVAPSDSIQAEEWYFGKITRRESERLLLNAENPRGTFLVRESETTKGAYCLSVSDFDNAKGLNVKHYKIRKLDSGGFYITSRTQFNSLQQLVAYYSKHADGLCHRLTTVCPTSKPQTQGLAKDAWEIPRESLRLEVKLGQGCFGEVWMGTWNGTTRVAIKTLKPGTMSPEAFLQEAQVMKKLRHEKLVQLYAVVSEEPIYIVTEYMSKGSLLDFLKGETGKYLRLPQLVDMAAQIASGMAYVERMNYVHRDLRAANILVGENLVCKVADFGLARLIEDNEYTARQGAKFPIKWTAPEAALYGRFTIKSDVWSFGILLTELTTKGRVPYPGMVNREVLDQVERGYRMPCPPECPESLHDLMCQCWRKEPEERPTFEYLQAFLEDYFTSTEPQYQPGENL
# T3 sequence (P07947 whole entry): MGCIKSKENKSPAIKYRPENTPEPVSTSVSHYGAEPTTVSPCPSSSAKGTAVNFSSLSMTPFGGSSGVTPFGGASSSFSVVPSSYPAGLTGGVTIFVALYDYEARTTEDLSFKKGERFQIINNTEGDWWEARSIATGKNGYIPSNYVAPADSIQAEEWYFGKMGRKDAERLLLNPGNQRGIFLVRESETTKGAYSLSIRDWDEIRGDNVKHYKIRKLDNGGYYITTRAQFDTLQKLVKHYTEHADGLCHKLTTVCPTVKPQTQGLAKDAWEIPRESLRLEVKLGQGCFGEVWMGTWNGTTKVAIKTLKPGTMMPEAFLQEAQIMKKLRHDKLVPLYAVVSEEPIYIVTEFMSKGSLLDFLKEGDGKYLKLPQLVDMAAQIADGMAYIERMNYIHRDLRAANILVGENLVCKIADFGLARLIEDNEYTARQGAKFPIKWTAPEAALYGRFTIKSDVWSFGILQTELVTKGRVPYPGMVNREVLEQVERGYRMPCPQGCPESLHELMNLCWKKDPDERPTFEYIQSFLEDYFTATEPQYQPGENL
Structure (SMILES),IC50 (human Lck enzyme; [1]),IC50 (human Src enzyme; [1]),IC50 (human Yes1 enzyme; [1]),IC50 (human Lck enzyme),IC50 (human Src enzyme),IC50 (human Yes1 enzyme)
"Cc1cc(Oc2c(F)cccc2F)ncc1-n1ncc(C(=O)c2cc3cc(OC(F)F)c(NS(=O)(=O)C4CC4)cc3[nH]2)c1N [Example 4-24-010, N-[2-[5-amino-1-[6-(2,6-difluorophenoxy)-4-methylpyridin-3-yl]pyrazole-4-carbonyl]-5-(difluoromethoxy)-1H-indol-6-yl]cyclopropanesulfonamide]",36 nM,150 nM,4.3 nM,,,
"Cc1cc(Oc2ccccc2F)ncc1-n1ncc(C(=O)c2cc3cc(OC(F)F)c(NC4CCN(S(C)(=O)=O)CC4)cc3[nH]2)c1N [Example 4-23-026, [5-amino-1-[6-(2-fluorophenoxy)-4-methylpyridin-3-yl]pyrazol-4-yl]-[5-(difluoromethoxy)-6-[(1-methylsulfonylpiperidin-4-yl)amino]-1H-indol-2-yl]methanone]",19 nM,50 nM,4.5 nM,,,
"Cc1cc(Oc2c(F)cccc2F)ncc1-n1ncc(C(=O)c2cc3cc(OCC(F)F)c(N4CCN(S(C)(=O)=O)CC4)cc3[nH]2)c1N [Example 4-23-001, {5-amino-1-[6-(2,6-difluorophenoxy)-4-methylpyridin-3-yl]pyrazol-4-yl}-[5-(2,2-difluoroethoxy)-6-(4-methylsulfonylpiperazin-1-yl)-1H-indol-2-yl]methanone]",8.2 nM,16 nM,1.3 nM,,,
"Cc1cc(Oc2ccccc2F)ccc1-n1ncc(C(=O)c2cc3cc(N4CCOCC4)c(N4CCCS4(=O)=O)cc3[nH]2)c1N [Example 4-25-006, [5-amino-1-[4-(2-fluorophenoxy)-2-methylphenyl]pyrazol-4-yl]-[6-(1,1-dioxo-1,2-thiazolidin-2-yl)-5-morpholin-4-yl-1H-indol-2-yl]methanone]",9 nM,18 nM,1.1 nM,,,
"Cc1cc(Oc2ccccc2F)ccc1-n1ncc(C(=O)c2cc3cc(F)c(NS(=O)(=O)c4cccc(C#N)c4)cc3[nH]2)c1N [Example 5-1-490, N-[2-[5-amino-1-[4-(2-fluorophenoxy)-2-methylphenyl]pyrazole-4-carbonyl]-5-fluoro-1H-indol-6-yl]-3-cyanobenzenesulfonamide]",110 nM,430 nM,3.7 nM,,,
"Cc1cc2cc(C(=O)c3cnn(-c4ccc(Oc5ccccc5F)cc4C)c3N)[nH]c2cc1C1CCN(S(=O)(=O)C2CC2)CC1 [Example 5-1-131, [5-amino-1-[4-(2-fluorophenoxy)-2-methylphenyl]pyrazol-4-yl]-[6-(1-cyclopropylsulfonylpiperidin-4-yl)-5-methyl-1H-indol-2-yl]methanone]",,,,5.6 nM,7.4 nM,1.1 nM
"Cc1cc(-n2ncc(C(=O)c3cc4cc(OC5CCN(C(C)C)CC5)c(Cl)cc4[nH]3)c2N)ccc1Oc1cccc(F)c1 [Example 5-1-209, [5-amino-1-[4-(3-fluorophenoxy)-3-methylphenyl]pyrazol-4-yl]-[6-chloro-5-(1-propan-2-ylpiperidin-4-yl)oxy-1H-indol-2-yl] methanone]",,,,98 nM,420 nM,4.4 nM
"Cc1cc2cc(C(=O)c3cnn(-c4ccc(Oc5c(F)cccc5Cl)cc4C)c3N)[nH]c2cc1NS(C)(=O)=O [Example 5-1-096, N-[2-[5-amino-1-[4-(2-chloro-6-fluorophenoxy)-2-methylphenyl]pyrazole-4-carbonyl]-5-methyl-1H-indol-6-yl] methanesulfonamide]",,,,2.7 nM,33 nM,1.7 nM
"Cc1cc2cc(C(=O)c3cnn(-c4ccc(Oc5ccccc5)cc4C)c3N)[nH]c2cc1NS(C)(=O)=O [Example 5-1-108, N-[2-[5-amino-1-(2-methyl-4-phenoxyphenyl)pyrazole-4-carbonyl]-5-methyl-1H-indol-6-yl] methanesulfonamide]",,,,1.7 nM,21 nM,0.57 nM
"Cc1cc(Oc2ccccc2F)ccc1-n1ncc(C(=O)c2cc3cc(OC(F)F)c(NS(=O)(=O)CCC(F)F)cc3[nH]2)c1N [Example 4-24-004, N-[2-[5-amino-1-[4-(2-fluorophenoxy)-2-methylphenyl]pyrazole-4-carbonyl]-5-(difluoromethoxy)-1H-indol-6-yl]-3,3-difluoropropane-1-sulfonamide]",17 nM,41 nM,3.1 nM,,,
"Cc1cc(Oc2ccccc2F)ccc1-n1ncc(C(=O)c2cc3cc(OC4CCN(C(C)C)CC4)c(F)cc3[nH]2)c1N [Example 5-1-203, [5-amino-1-[4-(2-fluorophenoxy)-2-methylphenyl]pyrazol-4-yl]-[6-fluoro-5-(1-propan-2-ylpiperidin-4-yl)oxy-1H-indol-2-yl]methanone]",,,,6.2 nM,7 nM,0.36 nM
"CC(C)N1CCC(c2cc3[nH]c(C(=O)c4cnn(-c5ccc(Oc6cccc(F)c6)cc5F)c4N)cc3cc2F)CC1 [Example 5-1-006, [5-amino-1-[2-fluoro-4-(3-fluorophenoxy)phenyl]pyrazol-4-yl]-[5-fluoro-6-(1-propan-2-ylpiperidin-4-yl)-1H-indol-2-yl]methanone]",,,,6 nM,56 nM,0.73 nM
"Cc1cc2cc(C(=O)c3cnn(-c4cnc(Oc5ccccc5F)cc4C)c3N)[nH]c2cc1NS(=O)(=O)c1cncc(C#N)c1 [Example 5-1-480, N-[2-[5-amino-1-[6-(2-fluorophenoxy)-4-methylpyridin-3-yl]pyrazole-4-carbonyl]-5-methyl-1H-indol-6-yl]-5-cyanopyridine-3-sulfonamide]",100 nM,400 nM,6.4 nM,,,
"Cc1cc2cc(C(=O)c3cnn(-c4cnc(Oc5ccccc5F)cc4C)c3N)[nH]c2cc1NS(=O)(=O)c1cccnc1 [Example 5-1-441, N-[2-[5-amino-1-[6-(2-fluorophenoxy)-4-methylpyridin-3-yl]pyrazole-4-carbonyl]-5-methyl-1H-indol-6-yl]pyridine-3-sulfonamide]",73 nM,280 nM,1.8 nM,,,
"Cc1cc(Oc2ccccc2F)ncc1-n1ncc(C(=O)c2cc3cc(OCC(F)F)c(NS(=O)(=O)c4cccnc4)cc3[nH]2)c1N [Example 5-1-425, N-[2-[5-amino-1-[6-(2-fluorophenoxy)-4-methylpyridin-3-yl]pyrazole-4-carbonyl]-5-(2,2-difluoroethoxy)-1H-indol-6-yl]pyridine-3-sulfonamide]",39 nM,95 nM,1.5 nM,,,

# The remaining compounds from weak to strong by IC50 (human Lck enzyme; [1]), led by results:
IC50 (human Lck enzyme; [1]),IC50 (human Src enzyme; [1]),IC50 (human Yes1 enzyme; [1]),IC50 (human Lck enzyme),IC50 (human Src enzyme),IC50 (human Yes1 enzyme),Structure (SMILES)
7 nM,30 nM,0.63 nM,,,,"Cc1cc(Oc2ccccc2F)ccc1-n1ncc(C(=O)c2cc3cc(OC(F)F)c(N4C(=O)NC(C)(C)C4=O)cc3[nH]2)c1N [Example 4-23-035, 3-[2-[5-amino-1-[4-(2-fluorophenoxy)-2-methylphenyl]pyrazole-4-carbonyl]-5-(difluoromethoxy)-1H-indol-6-yl]-5,5-dimethylimidazolidine-2,4-dione]"
6.7 nM,59 nM,1.3 nM,,,,"Cc1cc(Oc2c(F)cccc2Cl)ncc1-n1ncc(C(=O)c2cc3cc(F)c(NS(C)(=O)=O)cc3[nH]2)c1N [Example 4-2-035, N-[2-[5-amino-1-[6-(2-chloro-6-fluorophenoxy)-4-methylpyridin-3-yl]pyrazole-4-carbonyl]-5-fluoro-1H-indol-6-yl]methanesulfonamide]"
5.6 nM,8.8 nM,1.4 nM,,,,"COc1cc2cc(C(=O)c3cnn(-c4ccc(Oc5ccccc5F)cc4C)c3N)[nH]c2cc1N1CCCS1(=O)=O [Example 4-14-002, [5-amino-1-[4-(2-fluorophenoxy)-2-methylphenyl]pyrazol-4-yl]-[6-(1,1-dioxo-1,2-thiazolidin-2-yl)-5-methoxy-1H-indol-2-yl]methanone]"
5 nM,20 nM,1.5 nM,,,,"CC(C)N1CCC(c2cc3cc(C(=O)c4cnn(-c5ccc(Oc6cccc(Cl)c6)cc5)c4N)[nH]c3cc2F)CC1 [Example 4-2-005, [5-amino-1-[4-(3-chlorophenoxy)phenyl]pyrazol-4-yl]-[6-fluoro-5-(1-propan-2-ylpiperidin-4-yl)-1H-indol-2-yl]methanone]"
4.6 nM,40 nM,1.6 nM,,,,"Cc1cc(Oc2ccccc2F)ncc1-n1ncc(C(=O)c2cc3cc(OC(F)F)c(NC4COC4)cc3[nH]2)c1N [Example 4-23-013, [5-amino-1-[6-(2-fluorophenoxy)-4-methylpyridin-3-yl]pyrazol-4-yl]-[5-(difluoromethoxy)-6-(oxetan-3-ylamino)-1H-indol-2-yl]methanone]"
3.8 nM,30 nM,1.4 nM,,,,"Cc1cc(Oc2ccccc2F)ncc1-n1ncc(C(=O)c2cc3cc(OCC(F)F)c(NC4COC4)cc3[nH]2)c1N [Example 4-23-020, [5-amino-1-[6-(2-fluorophenoxy)-4-methylpyridin-3-yl]pyrazol-4-yl]-[5-(2,2-difluoroethoxy)-6-(oxetan-3-ylamino)-1H-indol-2-yl]methanone]"
2.7 nM,9.9 nM,0.83 nM,,,,"Cc1cc(Oc2c(F)cccc2F)ncc1-n1ncc(C(=O)c2cc3cc(OC(F)F)c(N4CCOC4=O)cc3[nH]2)c1N [Example 4-21-009, 3-[2-[5-amino-1-[6-(2,6-difluorophenoxy)-4-methylpyridin-3-yl]pyrazole-4-carbonyl]-5-(difluoromethoxy)-1H-indol-6-yl]-1,3-oxazolidin-2-one]"
